# Reference: patent US20050244413A1, “Compositions and methods for treating cancer using cytotoxic CD44 antibody immunoconjugates and chemotherapeutic agents” (priority 2002, published 2005)
# How the values were obtained:
# [1] = system: antigen-positive FaDu cells; assay: In vitro binding to FaDu cells (FACS); conditions: 1 hour on ice, FITC-labeled anti-human IgG, read-out: apparent KD
# Experimental: The binding of BIWA 4 antibody and BIWI 1 conjugate to antigen-positive FaDu cells was determined. Cells ([…]) were incubated in 96-well plates with varying concentrations of antibody or conjugate on ice for 1 hour. The test article was washed from the plate and FITC-labeled anti-human IgG was added and the incubation on ice was continued in the dark for 1 hour. After washing, the cells were fixed with 1% paraformaldehyde and analyzed on a fluorescence activated cell sorter (FACS).
# MDA-MB 453 tumors = assay: BIWI 1 monotherapy in MDA-MB 453 xenografted mice; assay type: in vivo, mouse
# Experimental: In vivo anti-tumor efficacy of BIWI 1 was tested in three nude mouse xenograft models applying antigen-positive human tumors: A431 (ATCC # CRL 1555; epidermoid carcinoma of the vulva), FaDu (ATCC # HTB 43; squamous cell carcinoma of the pharynx), and MDA-MB 453 (ATCC # HTB-131; breast carcinoma). The cells were received from ATCC and cultured in RPMI1640 medium containing 10% fetal calf serum and supplements. 1×10^6 tumors cells were transplanted subcutaneously into the right flank of 6 week old female NMRI-nu/nu mice. Tumor growth was monitored by measuring tumor size. A tumor response was rated as complete response when the tumor completely disappeared at any time after start of treatment. The response was rated as partial response when the tumor volume decreased after treatment but thereafter started regrowing. The tolerability of the treatment was monitored by measuring mouse weight during the observation period.
# Groups of 6 mice were treated with 6.25 mg/kg BIWI 1, 12.5 mg/kg BIWI 1, and 25 mg/kg BIWI 1, respectively. Treatment consisted of i.v. injections of BIWI 1 given weekly for four weeks. The average tumor size at start of treatment was 246±/−79 mm^3 (PBS), 216 +/85 mm^3 (6.25 mg/kg BIWI 1), 188±/−79 mm^3 (12.5 mg/kg BIWI 1), and 207±/−96 mm3 (25 mg/kg BIWI 1), respectively. The initial tumor volume doubling time of the control tumors was approximately 5 days. […] Tumors treated with 12.5 mg/kg or 6.25 mg/kg responded completely in 5/6 cases in each dose group, and 4 animals of each group stayed tumor free until the end of the experiment.
# FaDuDD tumors = assay: BIWI 1 combination with cisplatin in nude mice xenografted with FaDuDD tumors; assay type: in vivo, mouse
# Experimental: The antibody solution was injected into the tail vein with an injection volume of 200 μl for a 25 g mouse. In the control groups without BIWI 1 treatment animals were injected i.v. with PBS. […] The solution was injected into the tail vein with an injection volume of 200 μl for a 25 g mouse. […] The solution was injected into the tail vein with an injection volume of 200 μl for a 25 g mouse.
# Tumor sizes and body weights were recorded 2-3 times per week. Tumor sizes were measured with a calliper (length and width) and the volume was calculated according to the following formula: volume (length)×(width)^2×([…]). The tolerability of the treatment was monitored by measuring mouse weight during the whole observation period. […] For calculation of the mean tumor volumes per group, the last values of tumor size for individual animals were carried forward in case that these animals had to be sacrificed due to large tumor burden before the whole group was terminated. In addition to the absolute tumor volume in mm^3, the relative tumor volumes (RTV) were calculated as follows:
# RTV=(tumor volume at day x)/(tumor volume at start of treatment)×100 For the evaluation of treatment efficacy the following parameters were calculated: • T/C (%)=(mean RTV of treated group)/(mean RTV of control group)×100 • T4T (tumor quadrupling time)=time until the mean RTV reaches 400% • GDF4 (growth delay factor)=T4T treated/T4T control.
# In addition, for some experiments, the mean time for tumors to reach 8 times (T8T) their initial sizes were also calculated. The growth delay factor (GDF8) was then calculated accordingly. Percentages of mean relative tumor volumes of treated versus control groups (T/C) were calculated on the days indicated. For statistical evaluation of combination therapies exact Wilcoxon tests were used. Tolerability was assessed by monitoring body weight changes.
# A different set of experiments was done with cisplatin. In a pilot experiment, a dose of 4 mg/kg cisplatin administered i.v. four times in weekly intervals was determined to be non-curative in this model, and also represents the maximum tolerated dose in the mouse strain used. This dose of cisplatin was combined with BIWI 1 at the non-curative doses of 200 μg/kg DM1 and 300 Ag/kg DM1 already used in the previous experiment. […] In the latter combination group 2/8 complete tumor regressions could be observed. […] Treatment was well tolerated in all groups.
# MDA-MB-453 tumors = assay: BIWI 1 combination with capecitabine in nude mice xenografted with MDA-MB-453 tumors; assay type: in vivo, mouse; conditions: BIWI 1 75 μg/kg DM1 i.v. q7dx3
# Experimental: The xenograft model MDA-MB-453 was handled as in Section 2.8.
# BIWI 1 solution (protein concentration 2.95 mg/ml, 53.6 μg DM1/ml, 3.7 molecules DM1/molecule antibody) was diluted in PBS to a DM1 concentration of 75 μg/kg body weight. […] The antibody solution was injected into the tail vein with an injection volume of 200 μl for a 25 g mouse. In the control groups without BIWI 1 treatment animals were injected i.v. with PBS. BIWI 1 was given i.v. into the tail vein at a dose of 75 μg DM1/kg once weekly, for three weeks. Capecitabine (150 mg tablets, Roche) was given intragastrically (by gavage needle, as a suspension in water) at a dose of 375 or 500 mg/kg during three weeks on 5 consecutive days per week.
# To assess the efficacy of BIMI 1 in combination with capecitabine, non-curative doses of both drugs were tested as single agents or in combination in nude mice xenografted with MDA-MB453 tumors.
# For the combinations experiments BIWI 1 with 75 μg/kg DM1 was combined with 375 or 500 mg/kg capecitabine.
# [2] = system: breast carcinoma xenografts; assay: BIWI 1 (five daily doses) combination with paclitaxel in human breast carcinoma xenograft model; assay type: in vivo, mouse
# Experimental: BIWI was given i.v. into the tail vein at doses of 50 μg DM1/kg/day or 100 μg DM1/kg/day for five consecutive days. Paclitaxel (Taxol®) was given i.v. at 20 or 10 mg/kg, doxorubicin (Adriamycin®) at 6 or 4 mg/kg only on the first day of the treatment period, in each case 4 hours after BIWI 1 treatment. In mice bearing breast carcinoma xenografts with a volume of approximately 100 mm3.
# [3] = 25 mg/kg BIWI 1 i.v. weekly for four weeks
# [4] = BIWI 1 200 μg/kg DM1 i.v. q7dx4
# [5] = BIWI 1 300 μg/kg DM1 i.v. q7dx4
substance,measurement,setting,value
BIWI 1,Kd,[1],1.8 nM
same,animals tumor free until the end of the experiment,"MDA-MB 453 tumors; 12.5 mg/kg or 6.25 mg/kg BIWI 1, each group of 6 mice",4
same,complete responses,"MDA-MB 453 tumors; 12.5 mg/kg or 6.25 mg/kg BIWI 1 i.v. weekly for four weeks, in each dose group",5/6
same,day on which tumors disappeared,MDA-MB 453 tumors; [3],~22 days
same,tumor regrowth until end of observation period (day 64),MDA-MB 453 tumors; [3],No tumor regrowth
same,tumor response,MDA-MB 453 tumors; [3],all tumors responded completely
same,GDF4,FaDuDD tumors; [4],2.2
same,T4T,FaDuDD tumors; [4],23.2 days
same,T/C (d 19),FaDuDD tumors; [4],59%
same,GDF4,FaDuDD tumors; [5],2.3
same,T4T,FaDuDD tumors; [5],24.8 days
same,T/C (d 19),FaDuDD tumors; [5],27%
same,GDF4,MDA-MB-453 tumors,2.6
same,T4T,MDA-MB-453 tumors,26.9 days
same,T/C (d25),MDA-MB-453 tumors,31%
same,complete tumor regressions,"[2]; BIWI 1 monotherapy 50 μg DM1/kg/day i.v., five consecutive days",2/12
same,T/C (median relative tumor volumes of treated versus control groups),[2]; BIWI 1 monotherapy 50 μg DM1/kg/day x5,19%
same,Complete Regression,"[2]; BIWI 1 monotherapy 100 μg DM1/kg/day i.v., five consecutive days, tumors approx. 100 mm3",12/12
